The test system of one assay is U937 cells. Put plainly: PrestoBlue cell viability assay, U937 cells. It is filed as cell-based, human. As to conditions: for growth inhibition: U937 cells.
In another assay the test system is SU-DHL-1 cells. Put plainly: PrestoBlue cell viability assay, SU-DHL-1 cells. It is filed as cell-based, human. As to conditions: for growth inhibition: SU-DHL-1 cells.

Take `Nc1nc(Cl)nc2c1ncn2C1CC(O)C(CO)O1` (stereo not drawn) [cladribine, 5-(6-amino-2-chloro-purin-9-yl)-2-(hydroxymethyl)oxolan-3-ol]: the IC50 stood at 42 nM in the assay on U937 cells (Homo sapiens, U-937, U937, 48 hours, cell viability, n=3, read-out: average half maximal inhibitory concentration (IC50)) and 204 nM in the assay on SU-DHL-1 cells (Homo sapiens, SU-DHL-1, 48 hours, cell viability, n=3, read-out: average half maximal inhibitory concentration (IC50)). Moreover, the growth inhibition result in the assay on U937 cells and with SU-DHL-1 cells was “dose-dependent growth inhibition” throughout.
As for “hemoglobin: human hemoglobin, a CD163 ligand, unconjugated control”, the growth inhibition result in the assay on U937 cells and with SU-DHL-1 cells was “not” throughout.

(Values after patent US20160158368A1, “METHODS AND COMPOSITIONS FOR THE TREATMENT OF HISTIOCYTOSIS” (Therapure Biopharma Inc., priority 2014, published 2016).)
